# In ChEMBL document CHEMBL3868620, “Synthesis, DNA binding and antitrypanosomal activity of benzimidazole analogues of DAPI” (Bioorg Med Chem Lett, 2016):
# Columns and labels:
# [1] = Cytotoxicity against rat L6 cells assessed as reduction in cell viability after 70 hrs by Alamar blue assay; type: toxicity
# [2] = Binding affinity to poly(dA-dT)n DNA (unknown origin) assessed as change in melting temperature at 0.3 molar ratio of compound:DNA by spectrophotometric analysis
# [3] = Selectivity index, ratio OF IC50 for rat L6 cells to IC50 for bloodstream form of Trypanosoma brucei rhodesiense STIB900; type: functional
# [4] = system: Trypanosoma brucei rhodesiense; experiment: Antitrypanosomal activity against bloodstream form of Trypanosoma brucei rhodesiense STIB900 after 70 hrs by Alamar blue assay; type: functional; details: STIB900, 70 h
ΔTm [2] [°C],IC50 [4] [nM],SMILES,IC50 at 70 h [1] [nM],Ratio IC50 [3]
2.5,31,CCCn1c(-c2ccc(C(=N)N)cc2)nc2cc(C(=N)N)ccc21,> 137000,>4419
8,15,Cn1c(-c2ccc(C(=N)N)cc2)nc2cc(C(=N)N)ccc21,> 169000,>11266
1.1,8430,N=C(N)c1ccc(-c2nc3ccc(C(=N)N)cc3n2O)cc1,> 210000,>25
5.5,64,CCn1c(-c2ccc(C(=N)N)cc2)nc2cc(C(=N)N)ccc21,> 207000,>3234

# Further lines, the compound ahead of its results:
SMILES,ΔTm [2] [°C],IC50 [4] [nM],IC50 at 70 h [1] [nM],Ratio IC50 [3]
N=C(N)c1ccc(-c2cc3ccc(C(=N)N)cc3[nH]2)cc1 [DAPI],> 27,–,860,48
N=C(N)c1ccc(-c2nc3cc(C(=N)N)ccc3n2C2CCCCC2)cc1,2,529,> 162000,>306
c1cc2nc(-c3ccc(C4=NCCN4)s3)[nH]c2cc1C1=NCCN1,26,67,129000,1925
N=C(N)c1ccc2nc(-c3ccc(C(=N)N)s3)[nH]c2c1,25.2,19,26700,1405
N=C(N)c1ccc(-c2nc3cc(C(=N)N)ccc3[nH]2)cc1,24.7,31,26300,848
N=C(N)c1ccc2nc(-c3ccc(C(=N)N)o3)[nH]c2c1,10.1,48,150000,3229
